In publication PMC5797744, “Molecular Features Underlying Selectivity in Chicken Bitter Taste Receptors” (Frontiers in Molecular Biosciences, 2018):

Biological target: T1, ggTas2r2 (Gallus gallus, UniProt A0A1D5PXM6)
T1 construct: gene LOC101747503; transient expression in HEK 293T stably expressing Galpha16gust44; printed residues Gly85, Trp88, Asn92, Tyr180, Leu184, Tyr243, Ser246, Gln250
T1 sequence (A0A1D5PXM6 1-311): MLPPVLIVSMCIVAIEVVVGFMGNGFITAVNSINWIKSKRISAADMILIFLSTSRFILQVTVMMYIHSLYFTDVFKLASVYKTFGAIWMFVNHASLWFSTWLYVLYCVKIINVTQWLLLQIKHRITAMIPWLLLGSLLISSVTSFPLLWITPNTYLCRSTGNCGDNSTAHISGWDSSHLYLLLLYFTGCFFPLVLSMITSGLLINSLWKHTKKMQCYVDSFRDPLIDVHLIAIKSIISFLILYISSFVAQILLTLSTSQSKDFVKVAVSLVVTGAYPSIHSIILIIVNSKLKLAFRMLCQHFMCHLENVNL
Assay: calcium mobilization, Fluo4-AM, FLIPR, dose-response
Format: cell-based
Details: agonist; HEK 293T with Galpha16gust44; 2.5 mM probenecid at loading

Structure (SMILES) | calcium mobilization, Fluo4-AM, FLIPR, dose-response
C=C[C@H]1CN2CC[C@H]1C[C@@H]2[C@H](O)c1ccnc2ccc(OC)cc12 [epiquinidine] | Epiquinidine and ethylhydrocupreine can still activate ggTas2r2 and ggTas2r7
CCOc1ccc2nccc([C@@H](O)[C@@H]3C[C@@H]4CCN3C[C@@H]4CC)c2c1 [ethylhydrocupreine] | Epiquinidine and ethylhydrocupreine can still activate ggTas2r2 and ggTas2r7
